Source: BindingDB's records for doi:10.1021/acschembio.6b01133 (Merck & Co. Inc, 2017)
“And” between values parts separate entries of the source, which are not always exact repeats. Identical values can stand only once.

Legend:
Assay in all cases: RNAP-Inhibition Assay
Conditions in all cases: 37 °C
[1] = target: DNA-directed RNA polymerase subunit beta [D516V] (Escherichia coli, D516V)
Procedure: (§1) Fluorescence-detected RNAP inhibition assays in Tables 1 and 4 were performed using a DNA fragment containing the lacUV5 promoter as a template and the profluorescent ATP analog γ-[2′-(2-benzothiazoyl)-6′-hydroxybenzothiazole]-ATP(BBT-ATP, Jena Biosciences) as a substrate (methods as in ref 32). Fluorescence-detected RNAP inhibition assays in Figure 2C were performed essentially as described in refs 33 and 34. The assay used a proprietary circular single-stranded DNA as a template (Kool NC-45 Universal RNAP Template, Epicenter). […] A total of 5 μL of 20 nM recombinant RNAP in assay buffer [50 mM HEPES (pH = 8.0), 50 mM KCl, 4 mM MgCl2, 5% glycerol (v/v), 1 mM DTT, 0.1 mg mL−1 BSA, and 0.01% Triton X-100 (v/v)] was then added. After a 30 min incubation at RT, 5 μL of assay buffer solution containing 0.04 ng/μL DNA template and rNTPs (ATP, CTP, GTP, UTP; 600 μM each; Lucigen) was added to start the reaction. After incubation for 2 h at 37 °C, 70 μL of Quant-iT RiboGreen RNA Reagent [1:350 dilution in buffer containing 10 mM Tris-HCl (pH = 7.5) and 1 mM EDTA] was added to stop the reaction and develop the signal. The plate was read using a PheraStar Plus plate reader (BMG).

[2] = target: DNA-directed RNA polymerase subunit beta [H526D] (Escherichia coli, H526D)
Procedure: as §1

[3] = target: DNA-directed RNA polymerase subunit beta (Escherichia coli (strain K12), UniProt P0A8V2)
Procedure: as §1

[4] = target: DNA-directed RNA polymerase subunit beta [S531L] (Escherichia coli, S531L)
Procedure: as §1

DNA-directed RNA polymerase subunit beta, sequence (P0A8V2 whole entry): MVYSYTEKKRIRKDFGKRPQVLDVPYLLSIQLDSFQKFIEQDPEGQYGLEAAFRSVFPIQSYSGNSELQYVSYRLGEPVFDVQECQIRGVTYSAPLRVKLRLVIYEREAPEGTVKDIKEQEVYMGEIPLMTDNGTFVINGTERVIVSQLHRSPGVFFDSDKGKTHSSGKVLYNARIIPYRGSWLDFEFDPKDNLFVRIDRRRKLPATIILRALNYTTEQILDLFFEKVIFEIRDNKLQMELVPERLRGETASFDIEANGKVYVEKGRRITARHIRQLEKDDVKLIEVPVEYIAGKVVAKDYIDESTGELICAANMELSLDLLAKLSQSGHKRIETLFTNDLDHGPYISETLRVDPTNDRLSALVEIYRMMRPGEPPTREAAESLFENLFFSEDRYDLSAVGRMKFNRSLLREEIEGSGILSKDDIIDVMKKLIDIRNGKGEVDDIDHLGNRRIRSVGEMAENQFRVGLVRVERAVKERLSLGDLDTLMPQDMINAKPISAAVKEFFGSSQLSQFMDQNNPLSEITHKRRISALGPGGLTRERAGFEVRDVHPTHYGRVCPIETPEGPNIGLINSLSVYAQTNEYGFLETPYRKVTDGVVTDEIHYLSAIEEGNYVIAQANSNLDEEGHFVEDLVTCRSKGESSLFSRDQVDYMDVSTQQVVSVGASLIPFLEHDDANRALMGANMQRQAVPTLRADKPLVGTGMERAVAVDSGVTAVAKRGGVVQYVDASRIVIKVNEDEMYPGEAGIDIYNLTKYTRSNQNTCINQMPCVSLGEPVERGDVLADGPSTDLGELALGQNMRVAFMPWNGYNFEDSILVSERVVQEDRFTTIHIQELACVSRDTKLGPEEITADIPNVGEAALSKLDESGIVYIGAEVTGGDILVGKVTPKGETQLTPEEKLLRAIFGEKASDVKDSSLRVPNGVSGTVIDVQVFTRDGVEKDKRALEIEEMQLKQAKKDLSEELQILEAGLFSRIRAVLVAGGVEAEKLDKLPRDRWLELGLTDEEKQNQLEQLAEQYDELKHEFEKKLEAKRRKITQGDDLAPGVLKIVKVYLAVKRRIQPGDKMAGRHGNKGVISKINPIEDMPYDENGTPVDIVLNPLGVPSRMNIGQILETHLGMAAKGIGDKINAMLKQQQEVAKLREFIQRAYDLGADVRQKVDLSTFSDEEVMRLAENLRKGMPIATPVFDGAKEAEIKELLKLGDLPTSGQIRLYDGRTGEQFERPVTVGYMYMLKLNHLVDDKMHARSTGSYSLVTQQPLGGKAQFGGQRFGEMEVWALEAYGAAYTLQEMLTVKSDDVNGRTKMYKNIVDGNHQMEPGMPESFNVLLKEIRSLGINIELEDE

Row | SMILES | IC50 [1] [µM] | IC50 [2] [µM] | IC50 [3] | IC50 [4] [µM]
1 | CC(C)Cc1nnc2c(C(=O)NC3c4ccccc4-c4ccccc43)cccn12 [MRL-436] | 4 | 3 | 2 µM and 3 µM | 4
2 | CO[C@H]1/C=C/O[C@@]2(C)Oc3c(C)c(O)c4c(O)c(cc(O)c4c3C2=O)NC(=O)/C(C)=C\C=C\[C@H](C)[C@H](O)[C@@H](C)[C@@H](O)[C@@H](C)[C@H](OC(C)=O)[C@@H]1C [CB-01-11] | 70 | > 100 | 0.03 µM and 0.02 µM | 80
